Data published in paper PMC5398486, “Cheminformatics-aided discovery of small-molecule Protein-Protein Interaction (PPI) dual inhibitors of Tumor Necrosis Factor (TNF) and Receptor Activator of NF-κB Ligand (RANKL)” (PLoS Computational Biology, 2017).
Converted amounts (≈) assume the structure as drawn. Read-outs that look alike come from different tables or passages of the source. Marks after values point to notes of the source that are not given here.

T1: RANKL (Homo sapiens, UniProt O14788)
T1 sequence (O14788 143-317): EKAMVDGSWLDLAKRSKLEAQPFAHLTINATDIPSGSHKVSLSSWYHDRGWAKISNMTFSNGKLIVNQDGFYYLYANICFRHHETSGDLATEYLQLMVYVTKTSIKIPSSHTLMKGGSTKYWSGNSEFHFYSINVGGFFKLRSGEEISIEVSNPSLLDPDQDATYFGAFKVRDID


Legend:
[1] = test system: L929 cells; parameters: method as in PMID 25160057; conditions: compound alone, read-out: L929 LC50; cited from earlier work
[2] = target: T1, RANKL; experiment: Fluorescence-based binding affinity assay, RANKL
Method: For use in the binding assays, recombinant TNF and RANKL were expressed and purified as previously described.[84–86] Fluorescence intensity was measure with a Synergy H1 Multi-Mode Reader (BioTek) in 96-well microplates (black) at 25°C. […] During preparation of the solutions the buffer was firstly added to all wells followed by the ligand solution and finally the protein was added. All solutions were mixed by pipetting and equilibrated for 1h at 25°C before measurement. […] Experiments were performed for TNF in 10 mM citrate-phosphate (pH 6.5) and for RANKL in 25 mM Tris–HCl buffer, 100 mM NaCl (pH 7.5); both buffers were supplemented with PEG3350 at the concentrations indicated in the respective figures. Kd values were calculated as mean ± SEM from three independent experiments.
Differences in fluorescence intensity between the protein/ligand complex and free protein (or free ligand) were analysed as previously described in [Papaneophytou et al. (2013) ACS Med Chem Lett. 4: 137-141] (Eq. S6) in order to determine the dissociation constant (Kd) of the various protein-ligand systems.
In Eq. (S6) Fobs is the observed fluorescence intensity; FBG is the fluorescence background signal; MFLF [picture] and PF are the molar fluorescence and concentration of free protein, respectively; FR is the fluorescence ratio of bound protein (or bound ligand in the case of a fluorescence ligand); LT and PT are the total concentrations of ligand and protein, respectively. A detailed analysis of the development of the fluorescence ligand-binding assay is given in [Papaneophytou et al. (2013) ACS Med Chem Lett. 4: 137-141].

[3] = PEG3350 0% v/v; cited from earlier work
[4] = Solubility with PEG3350 as co-solvent; assay type: physicochemical; conditions: PEG3350 2.5% v/v
Text: PEG3350 was used as co-solvent in order to enhance inhibitors solubility and thus eliminate the possibility of aggregates formation. | column: Solubility (μM)

[5] = target: the molecule itself; experiment: cross-linking; 100 ng recombinant human TNF or RANKL, with or without inhibitors (30 min, room temperature), cross-linked with 4.8 mM BS3 for 30 min at room temperature; SDS-PAGE and western blot

Row | Kd ([2]; RANKL 0.5 μM, PEG3350 2.5%, 25 mM Tri-HCl, 100 mM NaCl pH 7.5, read-out: Binding affinity (Kd), RANKL) [µM] | Kd ([2]; RANKL 0.5 μM, PEG3350 5%, 25 mM Tri-HCl, 100 mM NaCl pH 7.5, read-out: Binding affinity (Kd), RANKL) [µM] | Kd ([2]; fluorescence assay, 25°C, 25 mM Tris-HCl, 100 mM NaCl, pH 7.5, 5% PEG3350, read-out: Kd (RANKL complexes)) [µM] | solubility [4] [µM] | Molecule | CC50 [1] [µM] | solubility [3] | stoichiometry N [5]
1 | 14.2 ± 0.68 | 13.8 ± 0.73 | 13.8 ± 0.7 | 71 (≈ 38.9 µg/mL) | Cc1cc2occ(CN(C)CCN(C)Cc3cn(-c4cccc(C(F)(F)F)c4)c4ccccc34)c(=O)c2cc1C [SPD304, InChI = 1S/C32H32F3N3O2/c1-21-14-28-30(15-22(21)2)40-20-24(31(28)39)18-37(4)13-12-36(3)17-23-19-38(29-11-6-5-10-27(23)29)26-9-7-8-25(16–26)32(33,34)35/h5-11,14–16,19-20H,12–13,17-18H2,1-4H3, reference compound] | 7.5 ± 0.2 | 10^b μM | 
2 |  |  |  |  | recombinant human RANKL (Receptor activator of nuclear factor kappa-B ligand) (ligand, UniProt O14788 140-317, looked up, source: bought: Peprotech) IRAEKAMVDGSWLDLAKRSKLEAQPFAHLTINATDIPSGSHKVSLSSWYHDRGWAKISNMTFSNGKLIVNQDGFYYLYANICFRHHETSGDLATEYLQLMVYVTKTSIKIPSSHTLMKGGSTKYWSGNSEFHFYSINVGGFFKLRSGEEISIEVSNPSLLDPDQDATYFGAFKVRDID |  |  | 3
